In brackets after ≈: the same amount, converted by molar mass. Read-outs that look alike come from different tables or passages of the source.
Experiments:
[1] = Saturation solubility of fulvestrant in combinations of solvents/detergents (Table 2); format: physicochemical
Description: To increase solubility, various other solvents, co-solvents, and surfactants were tested. For example, in some embodiments the monohydroxylated fatty acids (e.g., free ricinoleic acid) in the solvent were substituted with other lipid solvents such as castor oil or oleic acid. […] Here, some formulations including lipid solvents (especially in combination with ethanol and/or benzyl alcohol) can solubilize fulvestrant at a concentration higher than 60 mg/ml. Yet, most of such formulations capable of solubilizing fulvestrant at a higher concentration (e.g., higher than 60 mg/ml) require higher concentration of alcohols (e.g., higher than 30%, etc.), which may cause instability of the formulation (e.g., precipitation of fulvestrant over time, etc.). Moreover, some solvents also required substantial quantities of emulsifier (e.g., Cremophor™ (hydrogenated castor oil reacted with ethylene oxide)), which is not desirable as an ingredient for injection at the tested concentrations. Indeed, it is generally preferred that the fulvestrant compositions and solutions for injection are substantially free (i.e., less than 1% w/v, or less than 0.1% w/v, or less than 0.01% w/v) from surfactants, detergents, and/or emulsifiers.

[2] = background, cited from earlier work

C[C@]12CC[C@@H]3c4ccc(O)cc4C[C@@H](CCCCCCCCC[S+]([O-])CCCC(F)(F)C(F)(F)F)[C@H]3[C@@H]1CC[C@@H]2O (stereo partly drawn) [Fulvestrant]
solubility ([1]; 12.5% ethanol, 75% castor oil, 12.5% Cremophor RH 40 (% w/v), oil or lipid, thermodynamic from solid, No 11 (% w/v): 12.5% Ethanol, 75% Castor Oil, 12.5% Cremophor RH 40, read-out: Solubility): 128 mg/mL
solubility ([1]; 50% castor oil, 10% Lipoid E 80, 40% ethanol (% w/v), oil or lipid, thermodynamic from solid, No 12 (% w/v): 50% Castor Oil, 10% Lipoid E 80, 40% Ethanol, read-out: Solubility): 49.3 mg/mL
solubility ([1]; 50% castor oil, 25% ethanol, 25% Cremophor 40 (% w/v), oil or lipid, thermodynamic from solid, No 9 (% w/v): 50% Castor Oil, 25% Ethanol, 25% Cremophor 40, read-out: Solubility): 134 mg/mL
solubility ([1]; 50% oleic acid, 25% ethanol, 25% Cremophor 40 (% w/v), oil or lipid, thermodynamic from solid, No 8 (% w/v): 50% Oleic Acid, 25% Ethanol, 25% Cremophor 40, read-out: Solubility): 130 mg/mL
solubility ([1]; 60% castor oil, 18% BA, 13% ethanol, 9% Lipoid E 80 (% w/v), oil or lipid, thermodynamic from solid, No 14 (% w/v): 60% Castor Oil, 18% BA, 13% Ethanol, 9% Lipoid E 80, read-out: Solubility): 63 mg/mL
solubility ([1]; 70% castor oil, 20% oleic acid, 5% BA, 5% ethanol (% w/v), oil or lipid, thermodynamic from solid, No 16 (% w/v): 70% Castor Oil, 20% Oleic Acid, 5% BA, 5% Ethanol, read-out: Solubility): 49.9 mg/mL
solubility ([1]; 75% oleic acid, 12.5% ethanol, 12.5% Cremophor RH 40 (% w/v), oil or lipid, thermodynamic from solid, No 10 (% w/v): 75% Oleic Acid, 12.5% Ethanol, 12.5% Cremophor RH 40, read-out: Solubility): 113 mg/mL
solubility ([1]; 75% oleic acid, 25% castor oil (% w/v), oil or lipid, thermodynamic from solid, No 5 (% w/v): 75% Oleic Acid, 25% Castor Oil, read-out: Solubility): 15.5 mg/mL
solubility ([1]; 85% castor oil, 12% BA, 3% HP-B-CD (% w/v), oil or lipid, thermodynamic from solid, No 15 (% w/v): 85% Castor Oil, 12% BA, 3% HP-B-CD, read-out: Solubility): 17.2 mg/mL
solubility ([1]; No 13 (% w/v): 15% Ethanol, 15% Castor Oil, 15% Benzyl Alcohol, 10% Lipoid E 80): 45.95 mg/mL
solubility ([1]; oil or lipid, thermodynamic from solid, No 6 (% w/v): 49.5% Oleic Acid, 49.5% Castor Oil, 1% Polysorbate 20, read-out: Solubility): 22.8 mg/mL
solubility ([1]; oil or lipid, thermodynamic from solid, No 7 (% w/v): 74.5% Oleic Acid, 24.5% Castor Oil, 1% Polysorbate 20, read-out: Solubility): 15.7 mg/mL
solubility ([1]; oil or lipid, thermodynamic from solid, No 17 (% w/v): 10% Ethanol, 65% Castor Oil, 20% Oleic Acid, 5% Benzyl Alcohol, read-out: Solubility): 68.8 mg/mL
solubility ([1]; oil or lipid, thermodynamic from solid, No 18 (% w/v): 5% Ethanol, 65% Castor Oil, 20% Oleic Acid, 10% Benzyl Alcohol, read-out: Solubility): 39.5 mg/mL
solubility ([1]; oil or lipid, thermodynamic from solid, No 19 (% w/v): 22.5% Castor Oil, 67.5% Oleic Acid, 5% BA, 5% Ethanol, read-out: Solubility): 47.3 mg/mL
solubility ([1]; oil or lipid, thermodynamic from solid, No 20 (% w/v): 45% Oleic Acid, 45% Castor Oil, 5% Ethanol, 5% Benzyl Alcohol, read-out: Solubility): 43.7 mg/mL
solubility ([1]; oil or lipid, thermodynamic from solid, No 21 (% w/v): 5% Cremophor EL 35, 5% Ethanol, 5% Benzyl Alcohol, 85% Castor Oil, read-out: Solubility): 24.4 mg/mL
solubility ([1]; solvent mixture, oil or lipid, thermodynamic from solid, No 4 (% w/v): 25% Oleic Acid, 75% Castor Oil, read-out: Solubility): 18.2 mg/mL
solubility ([1]; solvent mixture, oil or lipid, thermodynamic from solid, No 3 (% w/v): 50% Castor Oil, 50% Oleic Acid, read-out: Solubility): 20 mg/mL
solubility ([1]; solvent/detergent mixture, oil or lipid, thermodynamic from solid, No 1 (% w/v): 99% Oleic Acid, 1% Poly. 20, read-out: Solubility): 4.08 mg/mL
solubility ([1]; solvent/detergent mixture, oil or lipid, thermodynamic from solid, No 2 (% w/v): 99% Castor Oil, 1% Poly. 20, read-out: Solubility): 23.2 mg/mL
solubility ([1]; solvent/detergent mixture, oil or lipid, thermodynamic from solid, No 22 (% w/v): 5% HS 15, 5% Ethanol, 5% Benzyl Alcohol, 85% Castor Oil, read-out: Solubility): 39.2 mg/mL
solubility ([1]; solvent/detergent mixture, oil or lipid, thermodynamic from solid, No 23 (% w/v): 5% Cremophor RH 40, 5% Ethanol, 5% Benzyl Alcohol, 85% Castor Oil, read-out: Solubility): 38 mg/mL
solubility ([1]; solvent/detergent mixture, oil or lipid, thermodynamic from solid, No 24 (% w/v): 44.5% Oleic Acid, 44.5% Castor Oil, 5% Ethanol, 5% Benzyl Alcohol, 1% Poly. 20, read-out: Solubility): 51.9 mg/mL
solubility ([1]; solvent/detergent mixture, oil or lipid, thermodynamic from solid, No 25 (% w/v): 67% Oleic Acid, 22% Castor Oil, 5% Ethanol, 5% Benzyl Alcohol, 1% Poly. 20, read-out: Solubility): 41 mg/mL
solubility (physchem; Cremophor RH40, aqueous with cosolvent or surfactant or cyclodextrin): 47.2 mg/mL (≈ 77.9 mM)
solubility (physchem; N,N-dimethylacetamide (DCAM), organic solvent or mixture): 306 mg/mL (≈ 504 mM)
solubility (physchem; PEG 300, organic solvent or mixture): 28.3 mg/mL (≈ 46.6 mM)
solubility (physchem; PEG 400, organic solvent or mixture): 24.8 mg/mL (≈ 40.9 mM)
solubility (physchem; benzyl alcohol, organic solvent or mixture): 269 mg/mL (≈ 443 mM)
solubility (physchem; benzyl benzoate, organic solvent or mixture): 3.9 mg/mL (≈ 6.43 mM)
solubility (physchem; butyric acid, organic solvent or mixture): 318 mg/mL (≈ 524 mM)
solubility (physchem; castor oil, oil or lipid): 21.2 mg/mL (≈ 34.9 mM)
solubility (physchem; dimethylsulfoxide (DMSO), organic solvent or mixture): 320 mg/mL (≈ 527 mM)
solubility (physchem; ethanol, organic solvent or mixture): 445 mg/mL (≈ 734 mM)
solubility (physchem; heptanoic acid, organic solvent or mixture): 154 mg/mL (≈ 255 mM)
solubility (physchem; hexanoic acid, organic solvent or mixture): 266 mg/mL (≈ 438 mM)
solubility (physchem; octanoic acid, organic solvent or mixture): 92.2 mg/mL (≈ 152 mM)
solubility (physchem; oleic acid, oil or lipid): 4.8 mg/mL (≈ 7.91 mM)
solubility (physchem; olive oil, oil or lipid): 0.4 mg/mL (≈ 0.659 mM)
solubility (physchem; propanoic acid, organic solvent or mixture): 319 mg/mL (≈ 526 mM)
solubility (physchem; propylene glycol, organic solvent or mixture): 39.1 mg/mL (≈ 64.4 mM)
solubility (physchem; ricinoleic acid, oil or lipid): 26 mg/mL (≈ 42.8 mM)
solubility ([2]; fulvestrant in benzyl alcohol): > 200 mg/mL
solubility ([2]; fulvestrant in ethanol): > 200 mg/mL

From patent US20210169897A1, “Concentrated Fulvestrant Compositions” (Nevakar Inc., priority 2017, published 2021)
